Test results taken from the supplement of paper PMC11061612.

What was measured:
[1] = tested on: CTV-1 (T-Lymphoblastic Leukemia); assay: Bliss excess, mean over the matrix (fraction); higher = more synergy
How it was run: (§1)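 Bliss excess equals the observed combination effect minus the expected value EA + EB − EA·EB, where EA and EB are the effects of each agent alone. Combination Emax is the second-highest inhibition within the matrix. Inhibition was scaled from CellTiter-Glo 2.0 luminescence, with 0 set by vehicle wells and 1 by blank wells, after 72 hours of two-drug dosing of cells plated in 1536-well plates.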

[2] = tested on: G-292-Clone-A141B1 (Osteosarcoma); assay: as above
How it was run: as §1

[3] = tested on: IHH-4 (Thyroid Gland Carcinoma); assay: as above
How it was run: as §1

J82 (Bladder Carcinoma) [4] = assay: as above
How it was run: as §1

[5] = tested on: JiyoyeP-2003 (Burkitt's Lymphoma); assay: as above
How it was run: as §1

[6] = tested on: KARPAS-620 (Plasma Cell Myeloma); assay: as above
How it was run: as §1

[7] = tested on: KATOIII (Gastric Carcinoma); assay: as above
How it was run: as §1

[8] = tested on: MFH-ino (Other Solid Carcinomas); assay: as above
How it was run: as §1

[9] = tested on: NCI-H1299 (Non-Small Cell Lung Carcinoma); assay: as above
How it was run: as §1

RH-1 (Ewing's Sarcoma) = assay: as above
How it was run: as §1

[10] = tested on: U-266 (Plasma Cell Myeloma); assay: as above
How it was run: as §1

[11] = tested on: 697 (B-Lymphoblastic Leukemia); assay: combination Emax (second highest fraction inhibited in the dose matrix, 72 h); higher = more inhibition; extreme values may be limits of the assay
How it was run: as §1

CAL-78 (Chondrosarcoma) = assay: as above
How it was run: as §1

ES7 (Ewing's Sarcoma) = assay: as above
How it was run: as §1

J82 (Bladder Carcinoma) [12] = assay: as above
How it was run: as §1

[13] = tested on: LS-513 (Colorectal Carcinoma); assay: as above
How it was run: as §1

[14] = tested on: NCI-H1299 (Non-Small Cell Lung Carcinoma); assay: as above
How it was run: as §1

[15] = tested on: NCI-H1793 (Lung Adenocarcinoma); assay: as above
How it was run: as §1

[16] = tested on: SW1088 (Low Grade Glioma); assay: as above
How it was run: as §1

[17] = tested on: SW1990 (Pancreatic Carcinoma); assay: as above
How it was run: as §1

Structure (SMILES) | Bliss excess [1] | Bliss excess [2] | Bliss excess [3] | Bliss excess (J82 (Bladder Carcinoma) [4]) | Bliss excess [5] | Bliss excess [6] | Bliss excess [7] | Bliss excess [8] | Bliss excess [9] | Bliss excess (RH-1 (Ewing's Sarcoma)) | Bliss excess [10] | combination Emax [11] | combination Emax (CAL-78 (Chondrosarcoma)) | combination Emax (ES7 (Ewing's Sarcoma)) | combination Emax (J82 (Bladder Carcinoma) [12]) | combination Emax [13] | combination Emax [14] | combination Emax [15] | combination Emax [16] | combination Emax [17]
CC(=O)c1c(C)c2cnc(Nc3ccc(N4CCNCC4)cn3)nc2n(C2CCCC2)c1=O [Palbociclib] + Cc1c2c(nn1C)CSCc1cc(n(C)n1)CSc1cc(c3ccccc3c1)OCCCc1c(C(=O)O)n(C)c3c-2c(Cl)ccc13 [AZD5991] (first compound max 10 µM, 7x7, partner max 1 µM) | -0.0096 | -0.0371 | -0.0171 | -0.0174 | -0.0436 | 0.0443 | 0.0505 | -0.042 | 0.0018 | -0.0722 | -0.019 | 1 | 0.693 | 0.714 | 0.25 | 0.658 | 0.478 | 0.212 | 0.364 | 0.204
CC1(C)CCC(CN2CCN(c3ccc(C(=O)NS(=O)(=O)c4ccc(NCC5CCOCC5)c([N+](=O)[O-])c4)c(Oc4cnc5[nH]ccc5c4)c3)CC2)=C(c2ccc(Cl)cc2)C1 [Venetoclax] + C1CN(CCC1(C(=O)N[C@@H](CCO)C2=CC=C(C=C2)Cl)N)C3=NC=NC4=C3C=CN4 [Capivasertib] (first compound max 1 µM, 7x7, partner max 3 µM) | -0.0319 | -0.0701 | -0.0187 | -0.0827 | -0.0144 | 0.0971 | -0.0691 | -0.0294 | -0.0036 | -0.0353 | -0.071 | 0.988 | 0.263 | 0.8 | 0.259 | 0.335 | 0.171 | 0.221 | 0.494 | 0.576
CN(C)CCCOc1ccc(-c2ccc3ncc4c(c3c2)n(C2CCOCC2)c(=O)n4C)cn1 [AZD0156] + C[C@@H]1COCCN1C2=NC(=NC(=C2)C3(CC3)[S@](=N)(=O)C)C4=C5C=CNC5=NC=C4 [AZD6738] (first compound max 1 µM, 7x7, partner max 10 µM) | -0.0115 | -0.0091 | 0.0537 | 0 | 0.0501 | 0.0058 | -0.0207 | -0.0591 | 0.0234 | 0.0731 | -0.117 | 1 | 0.41 | 0.846 | 0.396 | 0.822 | 0.746 | 0.455 | 0.57 | 0.552
CC1(C)CCC(CN2CCN(c3ccc(C(=O)NS(=O)(=O)c4ccc(NCC5CCOCC5)c([N+](=O)[O-])c4)c(Oc4cnc5[nH]ccc5c4)c3)CC2)=C(c2ccc(Cl)cc2)C1 [Venetoclax] + CCN(CCO)CCCOc1ccc2c(Nc3cc(CC(=O)Nc4cccc(F)c4)[nH]n3)ncnc2c1 [AZD2811] (first compound max 1 µM, 7x7, partner max 1 µM) | -0.0281 | -0.0413 | -0.0288 | -0.014 | 0.0467 | 0.169 | -0.0226 | -0.0239 | -0.0358 | -0.0548 | -0.0216 | 1 | 0.328 | 0.911 | 0.177 | 0.399 | 0.19 | 0.234 | 0.474 | 0.625
Cc1c2c(nn1C)CSCc1cc(n(C)n1)CSc1cc(c3ccccc3c1)OCCCc1c(C(=O)O)n(C)c3c-2c(Cl)ccc13 [AZD5991] + Cc1cc2ncnn2cc1Nc1ncc2c(n1)n(C1CCOCC1)c(=O)n2C [AZD7648] (first compound max 1 µM, 7x7, partner max 10 µM) | -0.0169 | -0.0274 | -0.0281 | -0.0231 | 0.0725 | 0.0308 | -0.0305 | -0.018 | -0.0436 | -0.0036 | 0.0078 | 1 | 0.782 | 0.682 | 0.187 | 0.319 | 0.34 | 0.41 | 0.423 | 0.218
CN(CCO)CC[C@H](CSc1ccccc1)Nc1ccc(S(=O)(=O)NC(=O)c2ccc(N3CCC([C@@H](O)c4ccccc4-c4ccc(Cl)cc4)CC3)cc2)cc1S(=O)(=O)C(F)(F)F [AZD4320] + C1CN(CCC1(C(=O)N[C@@H](CCO)C2=CC=C(C=C2)Cl)N)C3=NC=NC4=C3C=CN4 [Capivasertib] (first compound max 1 µM, 7x7, partner max 3 µM) | -0.0365 | -0.0041 | -0.0253 | -0.031 | 0.0157 | 0.0032 | -0.0385 | -0.0527 | -0.029 | 0.0468 | -0.0061 | 1 | 0.524 | 0.762 | 0.164 | 0.324 | 0.129 | 0.195 | 0.423 | 0.0829
CC(=O)c1c(C)c2cnc(Nc3ccc(N4CCNCC4)cn3)nc2n(C2CCCC2)c1=O [Palbociclib] + Cn1cnc2c(F)c(Nc3ccc(Br)cc3Cl)c(C(=O)NOCCO)cc21 [Selumetinib] (first compound max 10 µM, 7x7, partner max 10 µM) | 0.0496 | -0.0291 | 0.0575 | -0.0538 | 0.0443 | 0.166 | 0.0393 | -0.0237 | 0.108 | -0.0379 | 0.0393 | 0.833 | 0.331 | 0.609 | 0.138 | 0.876 | 0.463 | 0.318 | 0.358 | 0.334
Cn1cnc2c(F)c(Nc3ccc(Br)cc3Cl)c(C(=O)NOCCO)cc21 [Selumetinib] + CCN(CCO)CCCOc1ccc2c(Nc3cc(CC(=O)Nc4cccc(F)c4)[nH]n3)ncnc2c1 [AZD2811] (first compound max 10 µM, 7x7, partner max 1 µM) | 0.0436 | -0.0367 | -0.0209 | -0.0611 | -0.0053 | 0.193 | -0.0148 | -0.045 | -0.0205 | -0.0239 | 0.0128 | 1 | 0.267 | 0.792 | 0.153 | 0.85 | 0.363 | 0.203 | 0.424 | 0.245
CN(CCO)CC[C@H](CSc1ccccc1)Nc1ccc(S(=O)(=O)NC(=O)c2ccc(N3CCC([C@@H](O)c4ccccc4-c4ccc(Cl)cc4)CC3)cc2)cc1S(=O)(=O)C(F)(F)F [AZD4320] + C=CCn1c(=O)c2cnc(Nc3ccc(N4CCN(C)CC4)cc3)nc2n1-c1cccc(C(C)(C)O)n1 [AZD1775] (first compound max 1 µM, partner max 1 µM) | -0.0115 | 0.0335 | 0.0051 | -0.107 | 0.0154 | -0.0125 | -0.043 | -0.0288 | -0.0107 | 0.0413 | 0.1 | 1 | 0.846 | 0.935 | 0.117 | 0.866 | 0.88 | 0.449 | 0.391 | 0.757
COc1nnc2ccc(N3CCC(c4ccc(OCCN5CCN(C)C(=O)[C@H]5C)cc4)CC3)nn12 [AZD5153] + CC1(C)CCC(CN2CCN(c3ccc(C(=O)NS(=O)(=O)c4ccc(NCC5CCOCC5)c([N+](=O)[O-])c4)c(Oc4cnc5[nH]ccc5c4)c3)CC2)=C(c2ccc(Cl)cc2)C1 [Venetoclax] (first compound max 1 µM, 7x7, partner max 1 µM) | -0.0322 | -0.0571 | -0.0621 | -0.0672 | -0.0302 | -0.0637 | -0.0861 | -0.0608 | -0.0496 | -0.0391 | -0.157 | 1 | 0.457 | 0.565 | 0.308 | 0.568 | 0.691 | 0.248 | 0.471 | 0.108
COc1nnc2ccc(N3CCC(c4ccc(OCCN5CCN(C)C(=O)[C@H]5C)cc4)CC3)nn12 [AZD5153] + Cc1c2c(nn1C)CSCc1cc(n(C)n1)CSc1cc(c3ccccc3c1)OCCCc1c(C(=O)O)n(C)c3c-2c(Cl)ccc13 [AZD5991] (first compound max 1 µM, 7x7, partner max 1 µM) | -0.0515 | -0.032 | -0.0329 | 0.0439 | -0.0218 | -0.0115 | -0.0765 | -0.0333 | -0.0313 | 0.0034 | -0.106 | 1 | 0.749 | 0.928 | 0.791 | 0.644 | 0.798 | 0.288 | 0.487 | 0.109
COc1cccc(OCCCN)c1-c1cc(Nc2cnc(C#N)cn2)n[nH]1 [Prexasertib] + O=C(c1cc(Cc2n[nH]c(=O)c3ccccc23)ccc1F)N1CCN(C(=O)C2CC2)CC1 [Olaparib] (first compound max 1 µM, 7x7, partner max 10 µM) | -0.122 | -0.0443 | -0.0827 | 0.033 | -0.0421 | -0.046 | -0.149 | -0.0326 | -0.0694 | -0.0203 | -0.0895 | 1 | 0.565 | 0.976 | 0.462 | 0.781 | 0.694 | 0.532 | 0.792 | 0.696
COc1cccc(OCCCN)c1-c1cc(Nc2cnc(C#N)cn2)n[nH]1 [Prexasertib] + Cc1cc2ncnn2cc1Nc1ncc2c(n1)n(C1CCOCC1)c(=O)n2C [AZD7648] (first compound max 1 µM, 7x7, partner max 10 µM) | -0.0495 | -0.049 | -0.0109 | 0.0089 | 0.017 | 0.0083 | 0.0048 | -0.0301 | -0.0577 | -0.0085 | -0.0518 | 1 | 0.586 | 0.876 | 0.377 | 0.848 | 0.711 | 0.432 | 0.762 | 0.703
